Patent US10179791B2, “Spiro-cyclic amine derivatives as S1P modulators” (AbbVie B.V., priority 2010, dated 2019)
Where a name gives a salt, the structure may show the parent alone.

Experiments:
Assay type in all cases: cell-based
human S1P5 receptor = human S1P5 receptor (Homo sapiens (Human), UniProt Q9H228); assay: In vitro functional activity (agonism) on human S1P5 receptors, CHO-human-S1P5-Aequorin assay; conditions: aequorin luminescence, CHO cells, 3 independent experiments
Excerpt: In Vitro Functional Activity (Agonism) on Human S1P5 Receptors
(§1) The CHO-human-S1P5-Aeqorin assay was bought from Euroscreen, Brussels (Euroscreen, Technical dossier, Human Lysophospholid S1P5 (Edg8) receptor, DNA clone and CHO AequoScreen™ recombinant cell-line, catalog no: ES-593-A, September 2006). Human-S1P5-Aequorin cells express mitochondrial targeted apo-Aequorin. Cells have to be loaded with coelanterazine, in order to reconstitute active Aequorin. After binding of agonists to the human S1P5 receptor the intracellular calcium concentration increases and binding of calcium to the apo-Aequorin/coelenterazine complex leads to an oxidation reaction of coelenterazine, which results in the production of apo-Aequorin, coelenteramide, CO2 and light ([…]max 469 nm). This luminescent response is dependent on the agonist concentration. Luminescence is measured using the MicroBeta Jet (Perkin Elmer). Agonistic effects of compounds are expressed as pEC50. Compounds were tested at a 10 points half log concentration range, and 3 independent experiments were performed in single point's measurements.

human S1P1 [1] = molecular target: T1, human S1P1 (Homo sapiens (Human), UniProt P21453); assay: In vitro functional activity (agonism) on human S1P1 receptors (method B), CHO-K1-human S1P1-cAMP assay
T1 sequence (P21453 whole entry): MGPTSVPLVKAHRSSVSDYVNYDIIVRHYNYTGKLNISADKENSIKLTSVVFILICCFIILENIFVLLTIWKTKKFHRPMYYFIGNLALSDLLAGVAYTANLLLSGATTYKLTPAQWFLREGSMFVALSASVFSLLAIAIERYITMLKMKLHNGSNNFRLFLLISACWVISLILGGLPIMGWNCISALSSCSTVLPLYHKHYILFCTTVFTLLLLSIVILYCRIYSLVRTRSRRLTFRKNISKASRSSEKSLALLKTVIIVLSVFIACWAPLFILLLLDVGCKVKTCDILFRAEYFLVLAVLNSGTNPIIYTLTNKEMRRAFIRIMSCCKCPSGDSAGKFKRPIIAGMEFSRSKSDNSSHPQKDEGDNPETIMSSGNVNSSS
Description: In Vitro Functional Activity (Agonism) on Human S1P1 Receptors (Method B)
Recombinant CHO-K1 cells expressing human S1P1, grown to mid-log Phase in culture media without antibiotics, detached, centrifuged and re-suspended. For agonist testing cells are mixed with compound and Forskolin and incubated at room temperature. Cells are lyses and cAMP concentration are estimated, according to the manufacturer specification, With the HTRF kit from CIS-BIO International (cat no 62AM2PEB).
Compounds were tested at a 10 points half log concentration range duplicated in 1 experiment.

human S1P3 receptor = human S1P3 receptor (Homo sapiens (Human), UniProt Q99500); assay: In vitro functional activity (agonism) on human S1P3 receptors, CHO-human-S1P3-Aequorin assay; conditions: aequorin luminescence, CHO K1 cells, 3 independent experiments, read-out: S1P3 pEC50 (converted)
Sequence of human S1P3 receptor (Q99500 whole entry): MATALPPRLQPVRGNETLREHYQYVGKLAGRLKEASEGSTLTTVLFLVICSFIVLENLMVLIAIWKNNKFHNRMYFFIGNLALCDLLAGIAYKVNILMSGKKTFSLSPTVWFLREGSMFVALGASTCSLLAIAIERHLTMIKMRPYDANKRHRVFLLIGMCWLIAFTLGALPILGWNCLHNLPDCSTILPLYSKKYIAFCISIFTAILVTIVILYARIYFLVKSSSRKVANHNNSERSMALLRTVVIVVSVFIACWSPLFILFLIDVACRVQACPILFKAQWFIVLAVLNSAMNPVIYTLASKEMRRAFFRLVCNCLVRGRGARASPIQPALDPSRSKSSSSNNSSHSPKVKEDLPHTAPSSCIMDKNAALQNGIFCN
Excerpt: In Vitro Functional Activity (Agonism) on Human S1P3 Receptors
The CHO-human-S1P3-Aeqorin assay (CHO/Gα16/AEQ/h-S1P3) was established at Solvay Pharmaceuticals. The plasmid DNA coding for the S1P3 receptor (accession number in GenBank NM_005226 was purchased from UMR cDNA resource Centre (Rolla, Mo.). The pcDNA3.1/hS1P3 construct carrying the mitochondrially targeted apo-Aeqorin and Gal6 protein was transfected in CHO K1 cell-line.
as §1, with “Human-S1P3-Aequorin” for “The CHO-human-S1P5-Aeqorin assay was bought from Euroscreen, Brussels (Euroscreen, Technical dossier, Human Lysophospholid S1P5 (Edg8) receptor, DNA clone and CHO AequoScreen™ recombinant cell-line, catalog no: ES-593-A, September 2006). Human-S1P5-Aequorin”, “S1P3” for “S1P5”

human S1P1 [2] = molecular target: T1, human S1P1; assay: In vitro functional activity (agonism) on human S1P1 receptors (method A), CHO-K1-human-S1P1-Aequorin assay; conditions: agonism, determined using method A (aequorin luminescence, CHO-K1 cells), 2 independent experiments; read-out: S1P1^A pEC50 (converted)
Excerpt: In Vitro Functional Activity (Agonism) on Human S1P1 Receptors (Method A)
as §1, with “Human-S1P1-Aequorin” for “The CHO-human-S1P5-Aeqorin assay was bought from Euroscreen, Brussels (Euroscreen, Technical dossier, Human Lysophospholid S1P5 (Edg8) receptor, DNA clone and CHO AequoScreen™ recombinant cell-line, catalog no: ES-593-A, September 2006). Human-S1P5-Aequorin”, “S1P1” for “S1P5”, “2” for “3”

[3] = agonism, determined using method B (cAMP HTRF with Forskolin, CHO-K1 cells), read-out: S1P1^B pEC50 (converted)

Sequence of human S1P5 receptor (Q9H228 whole entry): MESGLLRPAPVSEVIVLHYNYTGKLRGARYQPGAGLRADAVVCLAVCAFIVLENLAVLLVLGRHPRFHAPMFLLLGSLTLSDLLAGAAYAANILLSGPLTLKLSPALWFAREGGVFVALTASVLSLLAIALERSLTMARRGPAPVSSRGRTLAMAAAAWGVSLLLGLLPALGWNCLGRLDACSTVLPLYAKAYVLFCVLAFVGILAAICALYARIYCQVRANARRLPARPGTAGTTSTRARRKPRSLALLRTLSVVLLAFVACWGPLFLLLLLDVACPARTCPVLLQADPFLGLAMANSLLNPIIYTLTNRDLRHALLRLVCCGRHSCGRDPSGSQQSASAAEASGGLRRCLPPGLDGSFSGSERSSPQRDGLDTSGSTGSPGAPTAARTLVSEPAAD

Question: Which “S1P5 pEC50” value (human S1P5 receptor) does the source give for `CCc1ccc(Cl)c(COc2ccc3c(c2)OCC32CCN(CCC(=O)O)CC2)c1Cl` [Compound 68, 3-{6-[(2,6-Dichloro-3-ethylphenyl)methoxy]-2H-spiro[1-benzofuran-3,4′-piperidine]-1′-yl}propanoic acid hydrochloride] here?
Answer: 7.5

Question: And the EC50 (human S1P1 [1]; [3])?
Answer: > 3.16 µM

Question: And the EC50 (human S1P3 receptor)?
Answer: > 10 µM

Question: How did the “S1P5 pEC50” value (human S1P5 receptor) turn out when `O=C(O)CCN1CCC2(CC1)COc1cc(/C=C/c3ccccc3F)ccc12` [Compound 171, 3-{6-[(E)-2-(2-Fluorophenyl)ethenyl]-2H-spiro[1-benzofuran-3,4′-piperidine]-1′-yl}propanoic acid hydrochloride] was run?
Answer: 6.5

Question: And the EC50 (human S1P1 [1]; [3])?
Answer: > 3.16 µM

Question: And the EC50 (human S1P3 receptor)?
Answer: > 10 µM

Question: How did the “S1P5 pEC50” value (human S1P5 receptor) turn out when `Cc1c(OCc2c(Cl)cccc2Cl)ccc2c1OCC21CCN(CCC(=O)O)CC1` [Compound 129, 3-{6-[(2,6-Dichlorophenyl)methoxy]-7-methyl-2H-spiro[1-benzofuran-3,4′-piperidine]-1′-yl}propanoic acid hydrochloride] was run?
Answer: 7.5

Question: And the EC50 (human S1P1 [1]; [3])?
Answer: > 3.16 µM

Question: And the EC50 (human S1P3 receptor)?
Answer: > 10 µM

Question: `Cc1cc(Cl)c(COc2ccc3c(c2)OCC32CCN(CCC(=O)O)CC2)c(Cl)c1` [Compound 59, 3-{6-[(2,6-Dichloro-4-methylphenyl)methoxy]-2H-spiro[1-benzofuran-3,4′-piperidine]-1′-yl)propanoic acid hydrochloride] was tested. Which “S1P5 pEC50” value (human S1P5 receptor) did it give?
Answer: 7.8

Question: And the EC50 (human S1P1 [1]; [3])?
Answer: > 3.16 µM

Question: And the EC50 (human S1P3 receptor)?
Answer: > 10 µM

Question: `CCc1ccc(Cl)c(COc2ccc3c(c2)OCC32CCN(CCC(=O)O)CC2)c1` [Compound 51, 3-{6-[(2-Chloro-5-ethylphenyl)methoxy]-2H-spiro[1-benzofuran-3,4′-piperidine]-1′-yl}propanoic acid hydrochloride] was tested. Which “S1P5 pEC50” value (human S1P5 receptor) did it give?
Answer: 6.6

Question: And the EC50 (human S1P1 [1]; [3])?
Answer: > 3.16 µM

Question: And the EC50 (human S1P3 receptor)?
Answer: > 10 µM

Question: Which results are given for `O=C(O)CCN1CCC2(CC1)COc1cc(/C=C/c3c(Cl)cccc3Cl)ccc12` [Compound 160, 3-{6-[(E)-2-(2,6-Dichlorophenyl)ethenyl]-2H-spiro[1-benzofuran-3,4′-piperidine]-1′-yl}propanoic acid hydrochloride]?
Answer: S1P5 pEC50 (human S1P5 receptor): 7.7; EC50 (human S1P1 [1]; [3]): > 3.16 µM; EC50 (human S1P3 receptor): > 10 µM

Question: For `O=C(O)CCN1CCC2(CC1)OCc1cc(OCc3c(Cl)cccc3Cl)ccc12` [Compound 203, 3-{5-[(2,6-Dichlorophenyl)methoxy]-3-H-spiro[2-benzofuran-1,4′-piperidine]-1′-yl}propanoic acid hydrochloride], which EC50 (human S1P1 [2]) is on record?
Answer: > 10 µM

Question: What about the “S1P5 pEC50” value (human S1P5 receptor) of the same compound?
Answer: 6.7

Question: What about the EC50 (human S1P3 receptor) of the same compound?
Answer: > 10 µM

Question: What does the source list for `O=C(O)CCN1CCC2(CC1)COc1cc(SCc3c(Cl)cccc3C3CC3)ccc12` [Compound 141, 3-(6-{[(2-Chloro-6-cyclopropylphenyl)methyl]sulfanyl}-2H-spiro[1-benzofuran-3,4′-piperidine]-1′-yl}propanoic acid hydrochloride]?
Answer: EC50 (human S1P1 [2]): 0.316 µM; S1P5 pEC50 (human S1P5 receptor): 8.2; EC50 (human S1P3 receptor): > 10 µM

Question: Which results are given for `O=C(O)CCN1CCC2(CC1)COc1cc(OCc3c(Cl)cccc3Cl)c(F)cc12` [Compound 289, 3-{6-[(2,6-Dichlorophenyl)methoxy]-5-fluoro-2H-spiro[1-benzofuran-3,4′-piperidine]-1′-yl}propanoic acid]?
Answer: EC50 (human S1P1 [2]): > 31.6 µM; S1P5 pEC50 (human S1P5 receptor): 7.5; EC50 (human S1P3 receptor): > 10 µM

Question: `O=C(O)CCN1CCC2(CC1)COc1cc(OCc3c(F)cccc3C3CC3)ccc12` [Compound 253, 3-{6-[(2-cyclopropyl-6-fluorophenyl)methoxy]-2H-spiro[1-benzofuran-3,4′-piperidine]-1′-yl}propanoic acid] was tested. Which EC50 (human S1P1 [2]) did it give?
Answer: 2.51 µM

Question: And the “S1P5 pEC50” value (human S1P5 receptor)?
Answer: 7.7

Question: What about the EC50 (human S1P3 receptor) of the same compound?
Answer: > 10 µM

Question: With `CC(C)c1cccc(Cl)c1COc1ccc2c(c1)OCC21CCN(CCC(=O)O)CC1` [Compound 74, 3-(6-{[2-Chloro-6-(propan-2-yl)phenyl]methoxy}-2H-spiro[1-benzofuran-3,4′-piperidine]-1′-yl)propanoic acid hydrochloride] as the compound, how does the EC50 (human S1P1 [1]) read?
Answer: > 3.16 µM

Question: Which results are given for `O=C(O)CCN1CCC2(CC1)COc1cc(C#Cc3ccccc3)ccc12` [Compound 303, 3-[6-(2-Phenylethynyl)-2H-spiro[1-benzofuran-3,4′-piperidine]-1′-yl]propanoic acid hydrochloride]?
Answer: EC50 (human S1P1 [2]): > 31.6 µM; S1P5 pEC50 (human S1P5 receptor): 7.6; EC50 (human S1P3 receptor): > 10 µM
